Assay results reported in patent US20120183635A1, “ROSEMARY EXTRACTS, DIETARY AND PHARMACEUTICAL COMPOSITIONS CONTAINING THEM AND THEIR USES” (DSM IP ASSETS B.V., priority 2006, published 2012).

Test system: duration of immobility
Test: Porsolt's Forced Swim Test (FST) in the mouse
Assay type: in vivo
Conditions: 32 mg/kg p.o., −24, −5, −1 h
Description: Mice were individually placed in a cylinder (Height=24.5 cm, Diameter=19.5 cm) containing 13.5 cm water (22° C.) from which they could not escape. The mice were placed in the water for 6 min and the duration of immobility during the last 4 min was measured. Ten mice were studied per group. Rosemary extract (dissolved in corn oil) was evaluated at 272, 409 and 545 mg/kg body weight, administered orally 24, 5, and 1 h before the test, and compared with a vehicle-treated control group. Imipramine (32 mg/kg, p.o.; dissolved in distilled water), administered under the same experimental conditions, was used as reference substance. Data were analysed by comparing all groups using one-way Analysis of Variance (ANOVA) and the Bonferroni post-hoc test.

In the case of `CN(C)CCCN1c2ccccc2CCc2ccccc21` [Imipramine, imipramine], the “DURATION OF IMMOBILITY % change from control” value is reported as −59% and the “DURATION OF IMMOBILITY (as % total test time) mean ± S.D.” value is reported as 17.75 ± 9.92 % total test time.
